Active and inactive are the calls of the source. The rule behind the calls is not given here.
Experiments:
[1] = biological target: T1, Human immunodeficiency virus type 1 integrase (Human immunodeficiency virus 1, UniProt Q7ZJM1)
[2] = biological target: T1, Human immunodeficiency virus type 1 integrase; remark: listed apart in the source
[3] = tested on: Enterobacteria phage T3; assay: Inhibition of T3 polymerase
[4] = biological target: DNA polymerase I (Escherichia coli) (UniProt P00582); assay: Inhibition of Klenow fragment
[5] = tested on: Bovine viral diarrhea virus 1; assay: Antiviral activity against BVDV; format: functional, organism-based
[6] = tested on: Respiratory syncytial virus; assay: Antiviral activity against RSV; format: functional, organism-based
[7] = tested on: Human immunodeficiency virus 1; assay: Antiviral activity against HIV1; format: functional, organism-based
[8] = tested on: Enterovirus; assay: Antiviral activity against Rhinovirus; format: functional, organism-based
[9] = tested on: Human immunodeficiency virus 1; assay: Antiviral activity against wild-type HIV1 NL4-3; format: functional, organism-based; details: Human immunodeficiency virus 1, NL4-3
[10] = tested on: Human immunodeficiency virus 1; assay: Antiviral activity against HIV1 T66I, L172F mutant; format: functional, organism-based
[11] = tested on: Human immunodeficiency virus 1; assay: Antiviral activity against HIV1 V151A, V165I mutant; format: functional, organism-based
[12] = tested on: Human immunodeficiency virus 1; assay: Antiviral activity against HIV1 NL4-3 T66I mutant; format: functional, organism-based; details: Human immunodeficiency virus 1, NL4-3
[13] = biological target: T1, Human immunodeficiency virus type 1 integrase; assay: Inhibition of HIV1 recombinant integrase in pre-integration complex
[14] = biological target: Human immunodeficiency virus type 1 protease (Human immunodeficiency virus 1) (UniProt Q72874); assay: Inhibition of HIV protease
[15] = biological target: Human immunodeficiency virus type 1 reverse transcriptase (Human immunodeficiency virus 1) (UniProt Q72547); assay: Inhibition of HIV-RT
[16] = biological target: Genome polyprotein (Bovine viral diarrhea virus (strain CP7) (BVDV) (Mucosal diseasevirus)) (UniProt Q96662); assay: Inhibition of BVDV polymerase; details: Bovine viral diarrhea virus 1

Compound: O=C(CC(=O)C(=O)O)CC(=O)c1ccccc1C(F)(F)F
- IC50 [1]: 6 µM

Compound: O=C(CC(=O)C(=O)O)CC(=O)c1ccccc1
- IC50 [1]: 80 µM

Compound: O=C(CC(=O)C(=O)O)CC(=O)c1ccccc1F
- IC50 [1]: 3 µM

Compound: O=C(CC(=O)C(=O)O)CC(=O)c1cccnc1
- IC50 [1]: > 300 µM

Compound: O=C(CC(=O)C(=O)O)CC(=O)c1ccc(-c2ccccc2)cc1
- IC50 [1]: 2 µM

Compound: O=C(CC(=O)C(=O)O)CC(=O)c1ccccc1OCc1ccccc1
- IC50 [1]: 7 µM

Compound: O=C(CC(=O)c1cccn1Cc1ccc(F)cc1)c1nnn[nH]1
- IC50 [1]: > 125 µM

Compound: O=C(/C=C(\O)C(=O)O)CCc1ccccc1Cl
- IC50 [1]: 26 µM

Compound: O=C(CCc1ccccc1Cl)CC(=O)C(=O)O
- IC50 [1]: 9 µM

Compound: O=C(CC(=O)C(=O)O)CC(=O)c1ccccn1
- IC50 [1]: 100 µM

Compound: O=C(O)C(=O)/C=C(\O)c1c[nH]c2ccc(Cl)cc12
- IC50 [2]: 0.08 µM
- IC50 [1]: 0.4 µM

Compound: O=C(/C=C(\O)C(=O)O)CCc1ccccc1
- IC50 [1]: 30 µM

Compound: O=C(CC(=O)C(=O)O)CC(=O)c1ccc2ccccc2c1
- IC50 [1]: 6 µM

Compound: O=C(CC(=O)c1nnn[nH]1)CC(=O)c1ccccc1Cl
- IC50 [1]: 125 µM

Compound: O=C(/C=C(\O)C(=O)O)CCc1ccccc1Br
- IC50 [1]: 5 µM

Compound: COc1ccccc1C(=O)CC(=O)CC(=O)C(=O)O
- IC50 [1]: 4 µM

Compound: O=C(CC(=O)C(=O)O)CC(=O)c1cccc2ccccc12
- IC50 [1]: 0.6 µM

Compound: O=C(CC(=O)C(=O)O)CC(=O)c1ccccc1Cl
- Activity [3]: inactive
- Activity [4]: inactive
- Activity [5]: inactive
- Activity [6]: inactive
- EC50 [7]: 120 µM
- Activity [8]: inactive
- EC50 [9]: 55 µM
- EC50 [10]: > 200 µM
- EC50 [11]: > 200 µM
- EC50 [12]: > 200 µM
- IC50 [13]: 0.6 µM
- Activity [14]: inactive
- Activity [15]: inactive
- Activity [16]: inactive
- IC50 [2]: 0.2 µM
- IC50 [1]: 1 µM

Compound: O=C(CC(=O)C(=O)O)CC(=O)c1cccc(Cl)c1
- IC50 [1]: 8 µM

Compound: O=C(/C=C(\O)C(=O)O)CCc1ccc(Cl)c(Cl)c1
- IC50 [2]: 0.01 µM
